Several values for one entry are separate records, joined by “and”; a condition that tells them apart may be missing. Equal entries are not always repeated.
Conditions: Liquid; for viscosity: Capillary tube (Ostwald / Ubbelohde) method; for mass density: Vibrating tube method

COCOC [dimethoxymethane]
Conditions	mass density [kg/m3]	viscosity
218.09 K	–	1.263 mPa·s
223.09 K	–	1.099 mPa·s
228.1 K	–	0.9649 mPa·s
228.11 K	–	0.9648 mPa·s
233.1 K	–	0.8557 mPa·s and 0.8556 mPa·s
233.16 K	935.5	–
238.11 K	–	0.7648 mPa·s
243.14 K	–	0.6886 mPa·s
243.15 K	–	0.6885 mPa·s
243.16 K	923.8	–
248.14 K	–	0.6248 mPa·s
253.13 K	–	0.5705 mPa·s
253.14 K	–	0.5705 mPa·s
253.16 K	912.4	–
258.12 K	–	0.524 mPa·s
258.15 K	–	0.5238 mPa·s
263.07 K	–	0.4841 mPa·s
263.09 K	–	0.4839 mPa·s
263.15 K	899.6	–
268.09 K	–	0.4489 mPa·s
273.05 K	–	0.4183 mPa·s
273.15 K	886	–
278.05 K	–	0.3912 mPa·s
283.1 K	–	0.3669 mPa·s
283.15 K	872.3	–
288.17 K	–	0.3452 mPa·s and 0.3451 mPa·s
293.09 K	–	0.3262 mPa·s
293.15 K	858.1	–
298.12 K	–	0.3086 mPa·s
298.13 K	–	0.3086 mPa·s
303.12 K	–	0.2927 mPa·s
303.13 K	–	0.2927 mPa·s
303.15 K	842.8	–
308.16 K	–	0.2781 mPa·s
308.17 K	–	0.2781 mPa·s
313.15 K	827.9	–
313.16 K	–	0.2647 mPa·s
318.16 K	–	0.2524 mPa·s
318.17 K	–	0.2524 mPa·s
323.15 K	–	0.241 mPa·s and 0.2409 mPa·s
323.16 K	814.1	–
328.14 K	–	0.2303 mPa·s
333.14 K	–	0.2202 mPa·s
333.15 K	800	0.2202 mPa·s
338.15 K	–	0.2107 mPa·s
343.15 K	785.2	0.2017 mPa·s
348.16 K	–	0.1931 mPa·s
353.12 K	–	0.185 mPa·s
353.13 K	–	0.185 mPa·s
353.16 K	770.8	–
358.16 K	–	0.1771 mPa·s
363.11 K	755.9	–
363.15 K	–	0.1696 mPa·s
368.14 K	–	0.1624 mPa·s
368.16 K	–	0.1623 mPa·s
373.14 K	–	0.1554 mPa·s
378.15 K	–	0.1486 mPa·s
383.15 K	–	0.142 mPa·s
383.16 K	–	0.142 mPa·s

— the NIST ThermoML archive (doi:10.1021/je049559v)
